Legend:
[1] = tested on: primary fibroblasts (healthy controls and PA, MMA, BCKDK, PDH, VLCAD, LS, PC, GA, VLCFA, KSS, FXN, HD); assay: Measurement of ROS (H2DCFDA) in primary fibroblasts; type: cell-based, human; details: Homo sapiens, Fibroblast; BCKD GM00612; procedure Example 812; Assay Condition A; read-out: Decreased ROS by at least 10%
How it was run: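 Patient and healthy-control primary fibroblasts switched to supplemented DMEM 24 h before assay, then treated with compound (10 μM) plus H2DCFDA (22 μM) for 2 h (PA, MMA lines) or 24 h (other lines). Kinetic fluorescence at 492/527 nm over 60 min; only live cells analysed.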

[2] = tested on: tyrosine hydroxylase positive mesencephalic neurons injured by 6-OHDA; assay: Neuroprotective effect on damage induced by 6-OHDA on culture of mesencephalic neurons; type: cell-based; details: Rattus norvegicus, Neuron; 50 uM; 6-OHDA 15 μM, 48h; read-out: % reversion of TH positive neurons (6-OHDA-mediated degradation of dopaminergic neurons)
Description: The protective effect of compounds of the present disclosure was determined on 6-OHDA-mediated injury on mesencephalon neuronal cultures.
(§1) A female Wistar rat (Janvier; France) of 15 days gestation was terminated by cervical dislocation, the fetuses were removed from the uterus and their brains were harvested and placed in ice-cold medium (Leibovitz's L15 medium, Gibco). Only ventral mesencephalic flexure was used for the cell preparations. The midbrain was dissociated by trypsinization. The reaction was stopped, and the suspension was triturated and centrifuged. The pellet of dissociated cells was resuspended in chemically defined medium consisted of Neurobasal (Gibco, 21103049), containing B27 supplement (Gibco, A3582801) and L-glutamine (Gibco, 25030081), 10 ng/ml (BDNF; Pepro Tech, France, 450-02) and 1 ng/ml (GDNF; Pepro Tech, 450-51).
(§2) Viable primary rat embryo mesencephalic cells were counted and seeded on 96-multi-wells plate precoated with poly-L-lysine. Cells were maintained in a humidified incubator at 37° C. in 5% CO2-95% air atmosphere and medium changed on day 2. On day 6, the culture medium was removed and replaced by new media without neurotrophic factors containing the compounds of the present disclosure (50-10 μM) or vehicle (0.1% DMSO). After 1h exposure, injury of mesencephalon neuronal cultures was induced by 6-OHDA (15 μM) for further 48h. A mixture of the growth factors GDNF (1 ng/ml) and BDNF (10 ng/ml) were used as reference compound. On day 8, the tyrosine hydroxylase positive neurons were evaluated. Cultures were fixed 30 min at 4° C. with paraformaldehyde in PBS (4%, Sigma). After, cells were permeabilized with 0.1% Triton X100 for 30 min, saturated with PBS containing 3% of BSA (bovine serum albumin) and incubated 2h with anti-tyrosine hydroxylase antibody (Sigma, 1:10000; clone TH-2) at 1/10000 in PBS containing 0.5% of BSA. Cells were washed three times with PBS containing 0.5% of BSA and incubated 1h with goat anti mouse antibody coupled with AF488 (Invitrogen A11001) diluted at 1/1000 in PBS containing 0.5% of BSA. Finally, nuclei were stained with DAPI (Thermo fisher, D1306) at 1/1000 in PBS containing 0.5% of BSA. After rinsing with PBS, the plate was visualized and examined with Cell Insight HCS (Thermo Scientific) to determine the number of tyrosine hydroxylase positive cells per well.
(§3) The results for each well were expressed as a percentage by setting the density of tyrosine hydroxylase positive cells under control conditions to 100%. Then the result for each condition was reported as mean±SEM from 4 independent cultures.
(§4) A global analysis of the data was performed using a one-way analysis of variance (ANOVA), followed by Fisher's Protected Least Significant Difference when applicable. The level of significance was set to p<0.05.

[3] = tested on: tyrosine hydroxylase positive mesencephalic neurons injured by MPP+; assay: Neuroprotective effect on damage induced by MPP+ on culture of mesencephalic neurons; type: cell-based; details: Rattus norvegicus, Neuron, MPP+ 50 μM, 48h, read-out: % reversion of TH positive neurons (MPTP-mediated degradation of dopaminergic neurons)
Excerpt: as §1, with “(Gibco),” for “(Gibco, 21103049),”, “(Gibco)” for “(Gibco, A3582801)”, “(Gibco),” for “(Gibco, 25030081),”, “France)” for “France, 450-02)”, “Tech).” for “Tech, 450-51).”
as §2, with “MPP^+ (50” for “6-OHDA (15”, “Thermo Scientific, 28908).” for “Sigma).”, “DAPI” for “DAPI (Thermo fisher, D1306)”
as §3, §4

Question: Which inhibition at 10 µM [1] does the source give for `CC(C)(CO)[C@@H](O)C(=O)NCCC(=O)NCCSC(=O)[C@@H](N)CCC(=O)O` [Compound 383] here?
Answer: ≥ 10%

Question: And the inhibition at 50 µM [2]?
Answer: ≥ 30%

Question: And the inhibition at 10 µM [3]?
Answer: ≥ 60%

— patent US20230107216A1, “PANTETHEINE DERIVATIVES AND USES THEREOF” (Comet Therapeutics, Inc., priority 2018, published 2023)
